These results are taken from PubChem BioAssay AID1963848 (Molecular Pharmacology Branch, DTP, NCI, 2024).

“And” between values parts separate entries of the source, which are not always exact repeats. Identical values can stand only once.

The test system of this assay is 379773-124-R-J2-PDC spheroid viability. Kind of assay: Anticancer human tumor 379773-124-R-J2-PDC patient-derived endometrial carcinoma cell line growth inhibition [POLQ]. To be noted: spheroids with HUVEC and MSC; for viability, T/C: stronger effect = lower value. As for the experimental part:
Multicellular complex tumor spheroid response to Polymerase (POL) inhibitors (novobiocin, ART-558, RP6685) in combination with a variety of drugs and investigational agents in selected tumor cell lines
The POL inhibitors (novobiocin, ART-558, and RP6685) were evaluated both individually and in combination with standard of care and investigational anticancer small molecules within a complex spheroid model of solid tumors. . Complex spheroids include a stromal component modeled by human endothelial cells (HUVEC) and fibroblasts modeled by human mesenchymal stem cells (MSCs). The concentration ranges selected for each drug and investigational agent were based upon clinically achievable concentrations if the clinical Cmax of the agent was known.
Compounds. The drugs and investigational agents: novobiocin (NSC847541), ART-558 (NSC835418), RP-6685 (NSC848927), peposertib (NSC802822), ceralasertib (NSC780249), elimusertib (NSC800525), camonsertib (NSC841442), AZD-1390 (NSC803789), olaparib (NSC753686), talazoparib (NSC767125), rucaparib (NSC756644), sotorasib (NSC818433), MRTX-1133 (NSC836407), SN-38 (NSC673596), topotecan (NSC609699), epotoside (NSC141540), doxorubicin (NSC123127), gemcitabine (NSC613327), 5-fluorouracil (NSC19893), paclitaxel (NSC125973), vemurafenib (NSC761431), MSA-2 (NSC828583), SN-011 (NSC837082), adavosertib (NSC754352), prexasertib (NSC758257), carboplatin (NSC241240) and oxaliplatin (NSC266046), were obtained from the National Cancer Institute (NCI) Developmental Therapeutics Program Chemical Repository (21). The FDA-approved anticancer drug set is available from the Developmental Therapeutics Program at https://dtp.cancer.gov/organization/dscb/obtaining/. […] The stock solutions were prepared in dimethyl sulfoxide (DMSO, Sigma-Aldrich, St. Louis, MO, cat. D2650), except for the platinum compounds which were prepared in saline (Quality Biological, Gaithersburg, MD, cat. 114-055-101), at 800-fold the tested concentration and stored at -70 degrees C prior to their use. All drugs and investigational agents were tested over a range starting from a high concentration at or near the clinical Cmax and decreasing in half-log increments. If the clinical Cmax for an agent had not been determined, the highest concentration tested was 10 microM, except for SN-38, which was tested at a high concentration of 1 microM.
Cell Culture. All cells were maintained in an incubator at 37 degrees C and 5% CO2 with 95% humidity. The PDC lines were cultured according to standard operating procedures established by the NCI PDMR (https://pdmr.cancer.gov). Table 3 of the manuscript, lists the cell lines along with the number of the three cell types plated to form the mct-spheroids and media for tumor cell growth. After thawing, all PDC lines, except 997537-175-T-J1-PDC and 415267-285-R-J2-PDC, were cultured in Matrigel-coated flasks prepared with a working solution of 1X Ham's F-12 nutrient mix, without supplementation (Thermo Fisher Scientific, cat. 11765054), 100 U/mL penicillin-streptomycin (Thermo Fisher Scientific, cat. 15140122), and 2.5% Matrigel (Corning Inc., Corning, NY, cat. 354248) for the first three passages. The two PDC lines 997537-175-T-J1-PDC and 415267-285-R-J2-PDC were cultured on uncoated flasks. The 857933-349-R-J2-PDC line was cultured in 6C/Colon 1B media containing advanced DMEM/F-12 (Thermo Fisher Scientific, cat. 12634028), 10 mM HEPES (Thermo Fisher Scientific, cat. 15630080), 1X GlutaMAX supplement (Thermo Fisher Scientific, cat. 35050061), 0.1 mg/mL primocin (InvivoGen, San Diego, CA, cat. ant-pm-2), 10% defined fetal bovine serum, heat inactivated (HyClone Laboratories Inc., Logan, UT, cat. SH30070.03HI), 50% L-WRN conditioned media (ATCC, cat. CRL-3276), 1.25 mM N-Acetyl-L-cysteine (Sigma-Aldrich, cat. A9165), 10 mM nicotinamide (Sigma-Aldrich, cat. N0636), 1X B-27 supplement (Thermo Fisher Scientific, cat. 17504044), 1X N-2 supplement (Thermo Fisher Scientific, cat. […]

[1] abbreviates: compound alone, run of 11/06/2023.
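Further: spheroids exposed to drugs for seven days before readout.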
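Wherever viability, T/C is given: percent viability relative to DMSO vehicle control taken as 100%.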

For the compound `COc1cc(C2c3cc4c(cc3C(OC3OC5COC(C)OC5C(O)C3O)C3COC(=O)C23)OCO4)cc(OC)c1O` (centres undefined), the viability, T/C reads like this: (compound 0.0316 µM) 84.9% and 99% and 87%; (compound 0.1 µM) 86.8% and 96.4% and 75.6%; (compound 0.316 µM) 89.5% and 90% and 75.2%; (compound 1 µM) 64.8% and 72.1% and 65%; (compound 3.16 µM) 14.7% and 19.1% and 14.3%; (compound 10 µM) 10.1% (2×) and 14.7%. The half-maximal inhibitory concentration (IC50) (curve of compound) is 1400 nM and 1620 nM.
For the compound `COc1cccc(OCCCN)c1-c1cc(Nc2cnc(C#N)cn2)n[nH]1`, the viability, T/C reads like this: (compound 0.00316 µM) 71.1% and 84.4% and 94.5%; (compound 0.01 µM) 4.45% and 22.9% and 22%; (compound 0.0316 µM) 2.75% and 2.85% and 3%; (compound 0.1 µM) 2.5% and 2.23% and 2.01%; (compound 0.316 µM) 2.05% and 2.52% and 2.6%; (compound 1 µM) 1.38% and 1.84% and 2.29%. Besides, the IC50 (curve of compound) was 4.55 nM and 6.02 nM and 6.41 nM.
Turning to `COc1cccc2c1C(=O)c1c(O)c3c(c(O)c1C2=O)CC(O)(C(=O)CO)CC3OC1CC(N)C(O)C(C)O1` (centres undefined), the viability, T/C is 78.1% and 95.3% and 81.8% (compound 0.0316 µM); 25% and 40.3% and 29.4% (compound 0.1 µM); 7.16% and 12.4% and 5.32% (compound 0.316 µM); 7.82% and 10.6% and 5.98% (compound 1 µM); 1.99% and 2.49% and 0.93% (compound 3.16 µM); 0.82% and 0.3% and 0.62% (compound 10 µM). The IC50 (curve of compound) was 58.1 nM and 80.7 nM and 63.6 nM.
Regarding `Cc1cccc(N(C)C(=O)C2C(O)CCN2c2nc(C)cc(C(F)(F)F)c2C#N)c1` (centres undefined), the viability, T/C by setting is: (compound 0.0316 µM) 89.8% [middle of 13 runs]; (compound 0.1 µM) 90.7% [middle of 13 runs]; (compound 0.316 µM) 88.2% [middle of 13 runs]; (compound 1 µM) 88.2% [middle of 13 runs]; (compound 3.16 µM) 89% [middle of 13 runs]; (compound 10 µM) 92.7% [middle of 13 runs]. For the same compound, the IC50 is, setting by setting: (compound alone, run of 10/31/2023) over 10000 nM; under setting [1], over 10000 nM.
On to `Cn1ncnc1[C@H]1c2n[nH]c(=O)c3cc(F)cc(c23)N[C@@H]1c1ccc(F)cc1`, for which the viability, T/C by setting is: (compound 0.000316 µM) 87.2% and 92.3% and 89.2%; (compound 0.001 µM) 84% and 90% and 91.3%; (compound 0.00316 µM) 95.8% and 99.7% and 71.6%; (compound 0.01 µM) 80.2% and 93.1% and 88.5%; (compound 0.0316 µM) 69.2% and 76.9% and 80.9%; (compound 0.1 µM) 51.7% and 51.5% and 63.7%. Moreover, the IC50 (curve of compound) is over 100 nM.
Regarding `Nc1ccc(C#CCN(C(=O)Cc2ncc(C(F)(F)F)cc2C(F)(F)F)c2ccc(F)cc2)nn1`, the viability, T/C by setting is: (compound 0.0316 µM) 91.8% [middle of 13 runs]; (compound 0.1 µM) 92.8% [middle of 13 runs]; (compound 0.316 µM) 93.2% [middle of 13 runs]; (compound 1 µM) 91.9% [middle of 13 runs]; (compound 3.16 µM) 94.9% [middle of 12 runs]; (compound 10 µM) 91.4% [middle of 13 runs]. Besides, the IC50 under setting [1] was over 10000 nM.
In the case of `Nc1ccn(C2OC(CO)C(O)C2(F)F)c(=O)n1` (centres undefined), the viability, T/C is 25.4% and 19.1% and 15.5% (compound 0.0316 µM); 8.86% and 11.2% and 9% (compound 0.1 µM); 8.47% and 12.9% and 7.5% (compound 0.316 µM); 10.6% and 10.1% and 9.75% (compound 1 µM); 10.8% and 13.3% and 10.3% (compound 3.16 µM); 7.47% and 10.7% and 7.2% (compound 10 µM). In addition, where the note is “curve of compound”, the IC50 was under 31.6 nM.
As to `O=C(c1cc(Cc2n[nH]c(=O)c3ccccc23)ccc1F)N1CCN(C(=O)C2CC2)CC1`, the viability, T/C by setting is: (compound 0.0316 µM) 90.8% and 82.3% and 93.3%; (compound 0.1 µM) 87% and 88.1% and 91.8%; (compound 0.316 µM) 74.1% and 91.5% and 88.4%; (compound 1 µM) 75.1% and 96.4% and 97.2%; (compound 3.16 µM) 86.8% and 84.9% and 86.2%; (compound 10 µM) 44.5% and 34.6% and 49.8%. In addition, the half-inhibitory concentration (IC50) (curve of compound) is 8480 nM and 7080 nM and > 10000 nM.
For `O=c1[nH]cc(F)c(=O)[nH]1`, the viability, T/C (compound 0.0316 µM) is 99.4% and 89.8% and 84.2%; the viability, T/C (compound 0.1 µM) is 81.4% and 94.1% and 74.5%; the viability, T/C (compound 0.316 µM) is 87.7% and 83.8% and 83.7%; the viability, T/C (compound 1 µM) was 93.3% and 88.7% and 90.6%; the viability, T/C (compound 3.16 µM) is 80.8% (2×) and 87.2%; the viability, T/C (compound 10 µM) is 54.3% and 51.3% and 50.9%. In addition, for the setting “curve of compound”, the 50% inhibitory concentration (IC50) was over 10000 nM.

For orientation: viability, T/C means the result in the treated group divided by that in the control group, in per cent. For orientation: IC50 means the point on the concentration scale where inhibition reaches its midpoint.
